Assay results: patent EP0260127A2, “Xanthine derivatives, their preparation and pharmaceutical compositions containing them” (BEECHAM - WUELFING GmbH & Co. KG, priority 1986, dated 1988)
Marks after values point to notes of the source that are not given here.

Key:
[1] = tested on: Mongolian gerbils; test: Gerbil ischaemic deficit passive avoidance test (recall latency following transient forebrain ischaemia); type: in vivo; settings: 3mg/kg p.o., seven administrations; gerbils after 5min bilateral carotid artery ligation; ischaemic controls 14, sham-ligated controls 33
Description: 2. The Gerbil Ischaemic Deficit Passive Avoidance Test.
Mongolian gerbils were conditioned to avoid entering a dark compartment by means of a footshock (maximally 50V, 2s duration) received when entering from the light section of a two compartment box. Recollection of the footshock was examined 24h later by replacing the gerbils in the two compartment box and measuring the recall latency, the time taken to re-enter the dark compartment.
Effect of test compound on recall latency in the gerbil following transient forebrain ischaemia.
A learning or memory deficit was induced in the gerbils by a transient (5min) bilateral carotid artery ligation, performed 24h prior to conditioning, under light hexobarbital anaesthesia.
Compounds, being examined for an effect on learning or memory in gerbils which had undergone carotid occlusion, were administered seven times during the experiment. The initial administration was during the period of forebrain ischaemia, the third and seventh administrations were 10min prior to conditioning and recall testing, respectively, and the remainder were given at intermediate time points.
A long recall latency indicates good information acquisition or retrival.

[2] = tested on: rat ischaemic gastrocnemius muscle; test: Effect on oxygen tension (pO2) of rat ischaemic gastrocnemius muscle; type: in vivo; settings: ischaemic hindlimb, femoral artery ligated 2-4 days previously
[3] = molecular target: cyclic AMP phosphodiesterase; test: Inhibition of cyclic AMP phosphodiesterase (Dixon plot); type: biochemical; settings: homogenates of rat skeletal muscle; 0.31 µM cyclic AMP as substrate; estimated from Dixon plot; read-out: Apparent Ki value
Description: 4. Inhibition of cyclic AMP phosphodiesterase.
The activity of cyclic AMP phosphodiesterase in homogenates of rat skeletal muscle was measured in the presence of various concentrations of compounds of formula (I) using 0.31 µM cyclic AMP as substrate. The reciprocal of the reaction rate was plotted on the y axis against the concentration of each compound on the x axis (Dixon plot). The apparent Ki value was estimated by extrapolating the steeper linear portion of the Dixon plot to the x axis and obtaining the negative intercept on the x axis.

Row | SMILES | Percentage of animals with recall latencies >60s [1] | CHANGE in pO2 (Torr) (mean ± SEM) ([2]; 5.0 mg/kg i.v., n 4) | Ki [3] | CHANGE in pO2 (Torr) (mean ± SEM) ([2]; 1.0 mg/kg i.v., n 8)
1 | CCCCn1c(=O)n(CCC(C)O)c(=O)c2c1ncn2CC(C)O (centres unmarked) [Example E5, 1-(3-Hydroxybutyl)-3-n-butyl-7-(2-hydroxypropyl) xanthine] | 32* | 2.3 ± 1.6 Torr | 128 µM | –
2 | CCCCn1c(=O)c2c(ncn2CC(C)O)n(CCC(C)O)c1=O (centres unmarked) [Example E6, 1-n-Butyl-3-(3-hydroxybutyl)-7-(2-hydroxypropyl)xanthine] | 33* | – | 94 µM | 2.2 ± 0.6 Torr
3 | CCCCn1c(=O)n(CCC(C)O)c(=O)c2c1ncn2CC(C)=O (centres unmarked) [Example E7, 1-(3-Hydroxybutyl)-3-n-butyl-7-(2-oxopropyl)xanthine] | – | – | 13 µM | –
4 | CCCCn1c(=O)n(CCC(C)=O)c(=O)c2c1ncn2CC(C)O (centres unmarked) [Example E8, 1-(3-Oxobutyl)-3-n-butyl-7-(2-hydroxypropyl) xanthine] | – | – | 160 µM | –
5 | CCCCn1c(=O)c2c(ncn2CC(C)=O)n(CCC(C)O)c1=O (centres unmarked) [Example E9, 1-n-Butyl-3-(3-hydroxybutyl)-7-(2-oxopropyl)xanthine] | – | – | 13 µM | –
6 | CC(=O)Cn1cnc2c1c(=O)n(CCC(C)O)c(=O)n2CCC(C)O (centres unmarked) [Example E11, 1,3-bis-(3-Hydroxybutyl)-7-(2-oxopropyl)xanthine] | – | – | 81 µM | –
7 | CC(O)CCn1c(=O)c2c(ncn2CC(C)O)n(CCC(C)O)c1=O (centres unmarked) [Example E14, 1,3-bis-(3-Hydroxybutyl)-7-(2-hydroxypropyl)xanthine] | – | – | 815 µM | –
